The subject of this data set is rodent lifetime carcinogenesis bioassay, tumor incidence TD50. Kind of data set: chronic cancer bioassays in animals – CPDB, compiled studies (AID 1745844).
[1] abbreviates: rat, strain Fischer 344, females, in feed, site: any site (literature study), lesion: several types, types named in the paper, dosed 103 weeks, study length 104 weeks.
Where [2] appears, read: rat, strain Fischer 344, males, in feed, site: any site (literature study), lesion: several types, types named in the paper, dosed 103 weeks, study length 104 weeks.

Carcinogen call and TD50 data for five compounds are collected here from PubChem BioAssay AID1745844 (Carcinogenic Potency Database (CPDB), 2022).

Values joined by “and” are separate entries in the source; they are usually repeats but may differ in a detail not shown here. Equal entries are not always repeated. Active and inactive are the calls of the source. The rule behind the calls is not given here.

For `Nc1cnn([C@@H]2O[C@H](CO)[C@@H](O)[C@H]2O)c(=O)n1`, the carcinogen call (rat, strain Fischer 344, males, i.p., site: any site (literature study), lesion: one or several types, types not named, dosed 52 weeks, study length 52 weeks) was “negative (inactive)”.
One may read the TD50 as the dose at which the toxic effect under study appears in half of the subjects. For `c1ccc(Nc2ccc3ccccc3c2)cc1`, the carcinogen call by setting is: (hamster, strain Syrian Golden, females, by gavage, site: any site (literature study), lesion: several types, types named in the paper, dosed 84 weeks, study length 84 weeks) “negative (inactive)”; (hamster, strain Syrian Golden, males, by gavage, site: any site (literature study), lesion: several types, types named in the paper, dosed 84 weeks, study length 84 weeks) “negative (inactive)”; under setting [1], “negative (inactive)”; under setting [2], “negative (inactive)”; (rat, strain Sprague-Dawley, females, by gavage, site: any site (literature study), lesion: several types, types named in the paper, dosed 136 weeks, study length 136 weeks) “negative (inactive)”; (rat, strain Sprague-Dawley, males, by gavage, site: any site (literature study), lesion: several types, types named in the paper, dosed 160 weeks, study length 160 weeks) “negative (inactive)”. Further, the TD50 runs as follows: (mouse, strain B6AKF1, females, oral dosing, site: any site (literature study), lesion: several types, types named in the paper, dosed 76 weeks, study length 76 weeks) 1080 mg/kg/day; (mouse, strain B6AKF1, males, oral dosing, site: any site (literature study), lesion: several types, types named in the paper, dosed 76 weeks, study length 76 weeks) 186 mg/kg/day; (mouse, strain B6AKF1, males, oral dosing, site: liver, lesion: hepatoma, dosed 76 weeks, study length 76 weeks) 460 mg/kg/day; (mouse, strain B6AKF1, males, oral dosing, site: lung, lesion: adenoma, dosed 76 weeks, study length 76 weeks) 431 mg/kg/day; (mouse, strain B6C3F1, females, in feed, site: kidney, lesion: tubular-cell adenoma + tubular-cell adenocarcinoma, dosed 103 weeks, study length 104 weeks) 10800 mg/kg/day; (mouse, strain B6C3F1, females, in feed, site: liver, lesion: hepatocellular adenoma + hepatocellular carcinoma + neoplastic nodule, dosed 103 weeks, study length 104 weeks) 5630 mg/kg/day. For the same compound, the TD50 runs as follows: (mouse, strain B6C3F1, females, oral dosing, site: any site (literature study), lesion: several types, types named in the paper, dosed 76 weeks, study length 76 weeks) 1080 mg/kg/day; (mouse, strain B6C3F1, females, oral dosing, site: liver, lesion: hepatoma, dosed 76 weeks, study length 76 weeks) 1080 mg/kg/day; (mouse, strain B6C3F1, males, in feed, site: any site (literature study), lesion: several types, types named in the paper, dosed 103 weeks, study length 104 weeks) 4510 mg/kg/day; (mouse, strain B6C3F1, males, in feed, site: liver, lesion: hepatocellular adenoma + hepatocellular carcinoma + neoplastic nodule, dosed 103 weeks, study length 104 weeks) 1350 mg/kg/day; (mouse, strain B6C3F1, males, in feed, site: subcutaneous tissue, lesion: fibrosarcoma + neurofibrosarcoma + sarcoma, NOS, dosed 103 weeks, study length 104 weeks) 2380 mg/kg/day (inactive); (mouse, strain B6C3F1, males, oral dosing, site: any site (literature study), lesion: several types, types named in the paper, dosed 76 weeks, study length 76 weeks) 108 mg/kg/day. The TD50 (mouse, strain B6C3F1, males, oral dosing, site: liver, lesion: hepatoma, dosed 76 weeks, study length 76 weeks) was found to be 165 mg/kg/day.
For `CCC(CC)[N+](=O)[O-]`, the TD50 by setting is: (rat, strain Fischer 344, males, by gavage, site: liver, lesion: hepatocellular carcinoma, dosed 50 weeks, study length 83 weeks) 3.05 mg/kg/day; (rat, strain Fischer 344, males, by gavage, site: liver, lesion: several types, types named in the paper, dosed 50 weeks, study length 83 weeks) 2.37 mg/kg/day.
In the case of `CC(=O)Nc1nc(-c2ccc([N+](=O)[O-])o2)cs1`, the TD50 runs as follows: (hamster, strain Syrian Golden, males, in feed, site: forestomach, lesion: squamous-cell papilloma, dosed 48 weeks, study length 70 weeks) 68.1 mg/kg/day; (hamster, strain Syrian Golden, males, in feed, site: urinary bladder, lesion: several types, types named in the paper, dosed 48 weeks, study length 70 weeks) 8.91 mg/kg/day; (hamster, strain Syrian Golden, males, in feed, site: urinary bladder, lesion: squamous-cell carcinoma, dosed 48 weeks, study length 70 weeks) 60.2 mg/kg/day; (rat, strain Sprague-Dawley, females, in feed, site: kidney/pelvis, lesion: transitional-cell carcinoma, dosed 46 weeks, study length 66 weeks) 316 mg/kg/day and 660 mg/kg/day; (rat, strain Sprague-Dawley, females, in feed, site: mammary gland, lesion: adenocarcinoma, dosed 46 weeks, study length 66 weeks) 36.2 mg/kg/day; (rat, strain Sprague-Dawley, females, in feed, site: mammary gland, lesion: fibroadenoma, dosed 46 weeks, study length 66 weeks) 56.9 mg/kg/day and 25 mg/kg/day and 30.2 mg/kg/day. Moreover, the TD50 (rat, strain Sprague-Dawley, females, in feed, site: mammary tissue, wider than the gland, lesion: several types, types named in the paper, dosed 46 weeks, study length 66 weeks) was 10.5 mg/kg/day.
As to `O=S(=O)(O)c1cc(S(=O)(=O)O)c2c(N=Nc3ccccc3)c(O)ccc2c1`, the carcinogen call (mouse, strain B6C3F1, females, in feed, site: any site (literature study), lesion: several types, types named in the paper, dosed 103 weeks, study length 104 weeks) was “negative (inactive)”; the carcinogen call (mouse, strain B6C3F1, males, in feed, site: any site (literature study), lesion: several types, types named in the paper, dosed 103 weeks, study length 103 weeks) is “negative (inactive)”; the carcinogen call under setting [1] was “negative (inactive)”. The TD50 runs as follows: (mouse, strain B6C3F1, males, in feed, site: lung, lesion: alveolar/bronchiolar adenoma + alveolar/bronchiolar carcinoma, dosed 103 weeks, study length 103 weeks) 22000 mg/kg/day; under setting [2], 2710 mg/kg/day; (rat, strain Fischer 344, males, in feed, site: liver, lesion: hepatocellular adenoma + hepatocellular carcinoma + neoplastic nodule, dosed 103 weeks, study length 104 weeks) 620 mg/kg/day; (rat, strain Fischer 344, males, in feed, site: tunica vaginalis, lesion: mesothelioma, NOS + mesothelioma, malignant, dosed 103 weeks, study length 104 weeks) 915 mg/kg/day (inactive).
